From PubChem BioAssay (NCI)
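These data come from cells grown in 96-well plates and exposed to compound for 48 hours at five concentrations. GI50 marks 50% less growth. TGI is the concentration that stops growth completely.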

What was measured:
Experiment in all cases: NCI-60 cell line screen, 48 h
[1] = tested on: 786-0 renal
[2] = tested on: A498 renal
[3] = tested on: CCRF-CEM leukemia
[4] = tested on: EKVX NSCLC
[5] = tested on: HT29 colon
[6] = tested on: MCF7 breast
[7] = tested on: RPMI-8226 leukemia
[8] = tested on: SNB-19 CNS
[9] = tested on: SW-620 colon
[10] = tested on: COLO 205 colon

Row | Structure (SMILES) | TGI [1] [µM] | TGI [2] [µM] | TGI [3] [µM] | TGI [4] [µM] | TGI [5] [µM] | TGI [6] [µM] | TGI [7] [µM] | TGI [8] [µM] | TGI [9] [µM] | TGI [10] [µM] | GI50 [1] [µM] | GI50 [2] [µM] | GI50 [3] [µM] | GI50 [10] [µM] | GI50 [4] [µM] | GI50 [5] [µM] | GI50 [6] [µM] | GI50 [7] [µM] | GI50 [8] [µM] | GI50 [9] [µM]
1 | Cc1c2c(C(N)=O)nccc2c(C)c2c1c1ccccc1n2Cc1ccccc1 | 15.9 | 46 | 62.6 | > 100 | 37.1 | > 100 | 61.2 | 51.2 | 50 | – | – | – | – | – | – | – | – | – | – | –
2 | Cc1ccc2occ/c(=N\Nc3ccccc3)c2c1 | > 100 | > 100 | > 100 | 98 | > 100 | > 100 | > 100 | > 100 | > 100 | > 100 | – | – | – | – | – | – | – | – | – | –
3 | CC(C)(C)c1cc(C(=O)/C=C/c2ccc(C(=O)O)cc2)cc(C(C)(C)C)c1 | 13.9 | 3.52 | 9.48 | 16.9 | 13.2 | 14.8 | 6.06 | 5.74 | 12.1 | 4.73 | – | – | – | – | – | – | – | – | – | –
4 | CC1=NC(C)(COC(=O)C2(C)NC(C)(CO)CO2)COC1=O (stereo not given) | > 100 | > 100 | > 100 | > 100 | > 100 | > 100 | > 100 | > 100 | > 100 | > 100 | – | – | – | – | – | – | – | – | – | –
5 | NC(N)=N/N=C(\N=Nc1ccccc1)c1ccc(Cl)cc1 | 8.36 | 22.2 | 5.78 | 13.5 | 5.39 | 14.2 | 12 | 35.5 | 3.54 | 5.36 | 2.03 | 9.53 | 1.76 | 2.46 | 2.55 | 2.29 | 2.43 | 3.21 | 12 | 1.41
6 | C=C1C(=O)OC2C1CC(OC(C)=O)/C(C)=C/CCC1(C)OC21 (stereo not given) | > 100 | – | > 100 | > 100 | > 100 | > 100 | > 100 | > 100 | > 100 | > 100 | – | – | – | – | – | – | – | – | – | –
7 | COC(=O)[C@]12CC[C@@H](C)[C@H](C)[C@@H]1C1=CC[C@@H]3[C@@]4(C)C(C=O)=C[C@@](C)(COC(=O)c5ccco5)[C@@H]4[C@H](O)C[C@@]3(C)[C@]1(C)CC2 | 7.13 | 12.7 | 7.58 | 13.8 | 4.14 | 9.86 | 6.7 | 30.8 | 8.32 | 0.355 | 2.4 | 3.19 | 2.54 | 0.0493 | 3.02 | 1.81 | 2.31 | 1.76 | 4.32 | 2.86
8 | O=C(NNc1cnccn1)c1nc2cc(F)ccc2n2cccc12 | > 100 | 2.67 | > 100 | > 100 | > 100 | > 100 | > 100 | > 100 | > 100 | > 100 | 0.572 | 0.575 | 0.211 | 0.331 | 0.387 | 0.649 | 0.336 | 0.518 | 0.7 | 0.397
9 | Cc1sc2c(c1C)C(c1ccc(Cl)cc1)=N[C@@H](CC(=O)Nc1ccc(OCCOCCOCCOCCNc3cccc4c3C(=O)N(C3CCC(=O)NC3=O)C4=O)cc1)c1nnc(C)n1-2 (stereo not given in full) | > 100 | 0.0962 | > 100 | > 100 | > 100 | > 100 | > 100 | > 100 | > 100 | > 82.4 | – | 0.013 | < 0.0222 | < 0.0279 | 0.409 | 0.314 | < 0.0166 | < 0.0175 | < 0.0301 | 0.0787
10 | CC1(C)N=C(N)N=C(N)N1c1cccc(OCCOc2cccc([N+](=O)[O-])c2)c1 | > 100 | > 100 | > 100 | – | > 100 | > 100 | > 100 | > 100 | > 100 | > 100 | 37 | > 67.7 | 1.23 | 2.13 | – | 0.583 | 2.23 | 4.01 | 4.88 | 1.93
11 | COc1ccc(-c2ccc(NNC(=O)c3ccc(F)cc3)nn2)cc1OC | > 100 | > 100 | > 100 | > 100 | > 100 | > 100 | > 100 | > 100 | > 100 | > 100 | > 100 | > 100 | 38 | > 100 | > 100 | > 100 | 93.4 | 35.3 | > 100 | > 100
12 | N#CC(C#N)=C1CCCOc2c1ccc1ccccc21 | > 100 | 4.89 | 63.7 | > 100 | > 100 | > 100 | 65.1 | > 100 | > 100 | > 100 | 88.2 | 1.84 | 23 | > 100 | 46.8 | > 100 | > 100 | 24.5 | 94.3 | > 100
13 | COc1cc(/C=C/C(=O)Oc2ccccc2)ccc1C(=O)O/C=C/c1ccccc1 | > 100 | > 21.5 | > 100 | > 100 | > 100 | > 100 | > 100 | > 100 | > 100 | > 100 | – | – | – | – | – | – | – | – | – | –
14 | CC(=O)NC1CONC1=O (stereo not given) | > 100 | > 100 | > 100 | > 100 | > 100 | > 100 | > 100 | > 100 | > 100 | > 100 | – | – | – | – | – | – | – | – | – | –
15 | CS(=O)(=O)CS(=O)(=O)OCCCl | 514 | 1350 | 687 | 1080 | 1320 | 1420 | 3170 | 969 | 1100 | 831 | – | – | – | – | – | – | – | – | – | –
16 | CCOC(=O)c1sc(NC(=O)COc2cccc(/C=C3\CCc4cc(OC)ccc4C3=O)c2)nc1C | > 100 | 76.6 | 4.3 | > 100 | > 100 | > 100 | 3.38 | > 100 | 13.3 | 43.4 | 17 | 16.3 | 1.26 | 8.49 | 74 | 3.71 | 3.03 | 1.2 | 2.78 | 3.79
17 | C=CCn1c(SCC(=O)Nc2ccc(C(=O)/C=C/c3cc(OC)c(OC)c(OC)c3)cc2)nnc1-c1ccc(OC)cc1 | 2.61 | 2.91 | > 100 | 64 | 0.532 | 3.14 | 0.68 | 11.8 | > 47.4 | 3.83 | 0.583 | 1.5 | 0.344 | 0.399 | 1.33 | 0.237 | 0.246 | 0.202 | 0.59 | 0.397
18 | Cc1noc2c1-c1ccccc1C(c1ccc(Cl)cc1)=N[C@H]2CC(N)=O | > 100 | 15.5 | > 100 | > 100 | > 100 | > 100 | 10.7 | > 100 | > 100 | > 51.7 | 10.9 | 0.235 | 14.8 | 0.646 | 14 | 1.35 | 0.732 | 0.362 | 11 | 26.1
19 | c1ccc2c(c1)c1ccccc1c1ccccc21 | > 100 | > 100 | > 100 | – | > 100 | > 100 | > 100 | > 100 | > 100 | > 100 | > 100 | > 100 | > 100 | > 100 | – | > 100 | > 100 | > 100 | > 100 | > 100
20 | COc1cc(/C=C2\CCC/C(=C\c3ccc(OCC4CO4)c(OC)c3)C2=O)ccc1OCC1CO1 (stereo not given) | 3.85 | 10.1 | > 100 | – | 4.62 | 7.32 | – | 76.4 | 5.09 | 3.54 | 2.04 | 3.62 | 2.5 | 2 | – | 2.25 | 2.02 | – | 4.73 | 2.46
21 | Clc1nc(Cl)c2ncn(Cc3ccccc3Cn3cnc4c(Cl)nc(Cl)nc43)c2n1 | 9.57 | 27.7 | 3.14 | 3.02 | – | 4.99 | – | > 26.1 | 3.33 | > 26.3 | 4.47 | 11.2 | 1.42 | 2.89 | 1.36 | 2.13 | 0.922 | – | 2.9 | 1.67
22 | COc1ccc(/C=C/c2cnccn2)cc1OC | > 10 | > 10 | – | > 10 | > 10 | > 10 | – | > 10 | > 10 | > 10 | – | – | – | – | – | – | – | – | – | –
23 | NCCCOc1cc(Cl)ccc1NC(=O)c1cc2ccccc2cc1OCCCN | 3.08 | 3.08 | 2.54 | 3.58 | 4.16 | 3.07 | – | 3.21 | 3.06 | 2.79 | 1.62 | 1.58 | 0.469 | 1.31 | 1.69 | 1.62 | 1.62 | – | 1.62 | 1.58
24 | Cn1cc(-c2csc(-c3cn(C)c4ccc(F)cc34)n2)c2cnccc21 | 2.96 | 3.04 | 4.13 | 3.7 | 3 | 3.66 | 4.14 | 3.3 | 3.59 | – | 1.51 | 1.62 | 1.96 | – | 1.87 | 1.47 | 1.93 | 1.98 | 1.82 | 1.88
25 | CCc1nc(Cl)c(Cl)c(Cl)n1 | > 100 | – | > 100 | > 100 | > 100 | > 100 | > 100 | > 100 | > 100 | – | – | – | – | – | – | – | – | – | – | –
26 | O=[N+]([O-])c1ccc(Sc2c3ccccc3nc3ccccc23)cn1 | 8.48 | > 100 | 8.3 | > 86.2 | 28 | 19.1 | – | > 66.6 | > 57.4 | 10.4 | – | – | – | – | – | – | – | – | – | –
27 | CN(C)CCNc1nc2ccccc2c2c(=O)c3cc(F)ccc3sc12 | 2.91 | – | 5 | – | 3.48 | 3.22 | 5.18 | – | 3.23 | 4.86 | 1.47 | – | 2.22 | 2.13 | – | 1.68 | 1.62 | 2.3 | – | 1.67
28 | O=C1/C(=C/N2N=C(c3ccc4ccccc4c3)CC2c2ccccc2O)SC(=S)N1c1cccnc1 (stereo not given) | > 100 | 5.83 | > 100 | – | > 100 | > 100 | > 100 | > 100 | > 100 | > 100 | 0.492 | 1.38 | 0.625 | 1.88 | – | 3.05 | 0.371 | 0.391 | 3.85 | 0.365
29 | NC(=O)CNc1ccc([As]=[As]c2ccc(NCC(N)=O)cc2)cc1 (stereo not given) | 14.3 | 18 | 73.6 | 90.9 | – | 15.2 | 10.8 | 18.2 | 15.4 | 22 | 3.21 | 4.69 | 0.706 | 7.83 | 4.83 | – | 2.12 | 2.61 | 4.7 | 2.54
30 | O=C(N/N=C/c1ccc(O)cc1O)c1cccnc1 | > 100 | 84.1 | > 100 | – | > 100 | 7.5 | > 100 | > 100 | > 100 | > 100 | 4.28 | 11.5 | 0.971 | 2.8 | – | 7.52 | 1.94 | 4.13 | 5.8 | 4.34
